Test results: patent US20260355196A1, “INHIBITORS AND DEGRADERS OF PIP4K PROTEIN” (Larkspur Biosciences, Inc., priority 2023, published 2026)

Each molecule was assayed against T1, PIP4K2C (Homo sapiens, UniProt Q8TBX8) (assay: Enzyme Binding Assay (KINOMEscan): active site-directed competition binding to an immobilized ligand). Conditions: 11-point dose response, duplicate, top concentration 5 micromolar; read-out: Pip4k2c Kd: IC50.
T1 sequence (Q8TBX8 1-421): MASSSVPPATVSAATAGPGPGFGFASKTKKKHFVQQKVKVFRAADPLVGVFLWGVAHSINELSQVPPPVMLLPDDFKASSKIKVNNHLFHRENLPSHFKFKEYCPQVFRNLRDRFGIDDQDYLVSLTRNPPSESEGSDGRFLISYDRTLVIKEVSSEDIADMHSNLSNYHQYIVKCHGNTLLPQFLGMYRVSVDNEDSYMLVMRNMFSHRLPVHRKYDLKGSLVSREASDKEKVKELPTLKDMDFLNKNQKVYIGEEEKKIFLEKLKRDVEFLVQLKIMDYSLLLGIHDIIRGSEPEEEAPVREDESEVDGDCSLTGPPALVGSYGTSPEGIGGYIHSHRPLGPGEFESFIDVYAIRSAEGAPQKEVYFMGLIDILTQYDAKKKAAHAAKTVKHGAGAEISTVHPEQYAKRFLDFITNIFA
Parameters: purchased Eurofins DiscoverX, San Diego, CA 87-0007-1094
Experimental: Example B-1: Enzyme Binding Assays (KINOMEscan)
PIP4K2C binding constants disclosed herein were determined using the proprietary Human PIP4K2C binding assay (Catalog number 87-0007-1094, Eurofins DiscoverX, San Diego, CA). This assay measures active site-directed competition binding to an immobilized ligand (see https://doi.org/10.1038/nbt1068, herein incorporated by reference in its entirety). Experiments were conducted using an 11-point dose response curve, in duplicate, with a top starting concentration of 5 micromolar; the Levenberg-Marquardt algorithm was used to fit a Hill equation to dose-response data to calculate IC50 values (see Table 5).

IC50 [µM] | Molecule
< 0.5 | NC(=O)[C@@H]1CCC[C@H](Nc2ncc(Cl)c(-c3cccc(-n4ccc(F)cc4=O)c3)n2)C1 (racemic) [Compound 168, rac-(1R,3S)-3-((5-chloro-4-(3-(4-fluoro-2-oxopyridin-1 (2H)-yl)phenyl)pyrimidin-2-yl)amino)cyclohexane-1-carboxamide]
< 0.5 | NC(=O)[C@H]1CCC[C@@H](Nc2ncc(F)c(-c3cccc(-c4ccc(=O)[nH]c4)c3)n2)C1 (racemic) [Compound 201, cis-3-((5-fluoro-4-(3-(6-oxo-1,6-dihydropyridin-3-yl)phenyl)pyrimidin-2-yl)amino)cyclohexane-1-carboxamide]
1 to 5 | NC(=O)[C@H]1CCC[C@@H](Nc2ncc(Cl)c(-c3ccc(F)cc3)n2)C1 (relative stereo) [Compound 28, cis-3-((5-chloro-4-(4-fluorophenyl)pyrimidin-2-yl)amino)cyclohexane-1-carboxamide]
< 0.5 | CC(=O)N[C@H]1CCC[C@@H](Nc2ncc(Cl)c(-c3cccc(-c4ccccc4)c3)n2)C1 (relative stereo) [Compound 33, cis-N-(3-((4-([1,1′-biphenyl]-3-yl)-5-chloropyrimidin-2-yl)amino)cyclohexyl)acetamide]
< 0.5 | CC(=O)N[C@@H]1CCC[C@@H](Nc2ncc(Cl)c(-c3cccc(-c4ccccc4)c3)n2)C1 (relative stereo) [Compound 34, trans-N-(3-((4-([1,1′-biphenyl]-3-yl)-5-chloropyrimidin-2-yl)amino)cyclohexyl)acetamide]
< 0.5 | NC(=O)[C@@H]1CCC[C@H](Nc2ncc(F)c(-c3cccc(N4CCCC4)c3)n2)C1 (relative stereo) [Compound 36, cis-3-((5-fluoro-4-(3-(pyrrolidin-1-yl)phenyl)pyrimidin-2-yl)amino)cyclohexane-1-carboxamide]
< 0.5 | NC(=O)[C@@H]1CCC[C@H](Nc2ncc(F)c(-c3cccc(C4CCC4)c3)n2)C1 (relative stereo) [Compound 38, cis-3-((4-(3-cyclobutylphenyl)-5-fluoropyrimidin-2-yl)amino)cyclohexane-1-carboxamide]
< 0.5 | NC(=O)[C@@H]1CCC[C@H](Nc2ncc(F)c(-c3ccc(=O)n(-c4ccc(F)cc4)c3)n2)C1 (relative stereo) [Compound 41, cis-3-((5-fluoro-4-(1-(4-fluorophenyl)-6-oxo-1,6-dihydropyridin-3-yl)pyrimidin-2-yl)amino)cyclohexane-1-carboxamide]

Each molecule was assayed against T1, PIP4K2C (assay: HiBiT PIP4K2C degradation assay in MOLT-4 cells (endogenous PIP4K2C C-terminally tagged with HiBiT)). Conditions: 6 hours of incubation time, rather than 24 hours; MOLT-4, top concentration 10 micromolar; read-out: HiBIT-degradation MOLT4 PIP4k2C DC50 (6 hours, marked *).
Type: cell-based
Parameters: untagged in primary human PBMCs and monocyte-derived dendritic cells
How it was run: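 In a CRISPR-engineered MOLT-4 clone carrying HiBiT-tagged PIP4K2C, degradation was assessed after 24 or 6 hours of dosing (10 micromolar top, 3-fold steps). Luminescence from lytic HiBiT detection was fitted to obtain DC50.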

DC50 [µM] | Molecule
< 0.5 | O=C1CCC(Nc2ccc(C3CCN([C@H]4CC[C@H](NC(=O)[C@H]5CC[C@H](Nc6ncc(F)c(-c7ccnc(-n8ccccc8=O)c7)n6)CC5)CC4)CC3)c(F)c2)C(=O)N1 (stereo partly drawn) [Compound 696, trans-N-(trans-4-(4-(4-((2,6-dioxopiperidin-3-yl)amino)-2-fluorophenyl)piperidin-1-yl)cyclohexyl)-4-((5-fluoro-4-(2-oxo-2H-[1,2′-bipyridin]-4′-yl)pyrimidin-2-yl)amino)cyclohexane-1-carboxamide]
< 0.5 | O=C1CCC(Nc2ccc(C3CCN(CCC4CCN(C(=O)O[C@H]5CC[C@H](Nc6ncc(F)c(-c7cccc(-n8ccccc8=O)c7)n6)CC5)CC4)CC3)c(F)c2)C(=O)N1 (stereo partly drawn) [Compound 697, trans-4-((5-fluoro-4-(3-(2-oxopyridin-1 (2H)-yl)phenyl)pyrimidin-2-yl)amino)cyclohexyl 4-(2-(4-(4-((2,6-dioxopiperidin-3-yl)amino)-2-fluorophenyl)piperidin-1-yl)ethyl)piperidine-1-carboxylate]
< 0.5 | O=C1CCC(Nc2ccc(N3CCC(N4CCN(C(=O)O[C@H]5CC[C@H](Nc6ncc(F)c(-c7cccc(-n8ccccc8=O)c7)n6)CC5)CC4)CC3)c(F)c2)C(=O)N1 (stereo partly drawn) [Compound 698, trans-4-((5-fluoro-4-(3-(2-oxopyridin-1 (2H)-yl)phenyl)pyrimidin-2-yl)amino)cyclohexyl 4-(1-(4-((2,6-dioxopiperidin-3-yl)amino)-2-fluorophenyl)piperidin-4-yl)piperazine-1-carboxylate]
< 0.5 | O=C1CCC(Nc2ccc(N3CCN([C@H]4CC[C@H](OC(=O)N5CCC(Nc6ncc(F)c(-c7cccc(-n8ccccc8=O)c7)n6)CC5)CC4)CC3)c(F)c2)C(=O)N1 (stereo partly drawn) [Compound 699, trans-(1R,4r)-4-(4-(4-(((R)-2,6-dioxopiperidin-3-yl)amino)-2-fluorophenyl)piperazin-1-yl)cyclohexyl 4-((5-fluoro-4-(3-(2-oxopyridin-1 (2H)-yl)phenyl)pyrimidin-2-yl)amino)piperidine-1-carboxylate]
< 0.5 | O=C1CCC(Nc2ccc(N3CCC(N4CCC(NC(=O)[C@H]5CC[C@H](Nc6ncc(F)c(-c7cccc(N8CCCCC8)c7)n6)CC5)CC4)C(F)C3)c(F)c2)C(=O)N1 (stereo partly drawn) [Compound 700, trans-N-(1′-(4-((2,6-dioxopiperidin-3-yl)amino)-2-fluorophenyl)-3′-fluoro-[1,4′-bipiperidin]-4-yl)-4-((5-fluoro-4-(3-(piperidin-1-yl)phenyl)pyrimidin-2-yl)amino)cyclohexane-1-carboxamide]
< 0.5 | O=C1CCC(Nc2ccc(N3CCC(N4CCC(NC(=O)[C@H]5CC[C@H](Nc6ncc(F)c(-c7cccc(N8CCCCC8=O)c7)n6)CC5)CC4)C(F)C3)c(F)c2)C(=O)N1 (stereo partly drawn) [Compound 701, trans-N-(1′-(4-((2,6-dioxopiperidin-3-yl)amino)-2-fluorophenyl)-3′-fluoro-[1,4′-bipiperidin]-4-yl)-4-((5-fluoro-4-(3-(2-oxopiperidin-1-yl)phenyl)pyrimidin-2-yl)amino)cyclohexane-1-carboxamide]
< 0.5 | O=C1CCC(Nc2ccc(N3CCC(N4CCC(C(=O)NC5CCC(Nc6ncc(F)c(-c7cccc(-c8ccc[nH]c8=O)c7)n6)CC5)CC4)CC3)c(F)c2)C(=O)N1 [Compound 702, trans-1′-(4-(((S)-2,6-dioxopiperidin-3-yl)amino)-2-fluorophenyl)-N-((1r,4r)-4-((5-fluoro-4-(3-(2-oxo-1,2-dihydropyridin-3-yl)phenyl)pyrimidin-2-yl)amino)cyclohexyl)-[1,4′-bipiperidine]-4-carboxamide]
< 0.5 | O=C1CCC(Nc2ccc(N3CCN(C[C@H]4CC[C@H](CC(=O)N[C@H]5CC[C@H](Nc6ncc(F)c(-c7cccc(-c8ccc[nH]c8=O)c7)n6)CC5)CC4)CC3)c(F)c2)C(=O)N1 (stereo partly drawn) [Compound 703, trans-2-((1r,4R)-4-((4-(4-((2,6-dioxopiperidin-3-yl)amino)-2-fluorophenyl)piperazin-1-yl)methyl)cyclohexyl)-N-((1r,4R)-4-((5-fluoro-4-(3-(2-oxo-1,2-dihydropyridin-3-yl)phenyl)pyrimidin-2-yl)amino)cyclohexyl)acetamide]
< 0.5 | O=C1CCC(Nc2ccc(N3CCC(CN4CCC(CC(=O)N[C@H]5CC[C@H](Nc6ncc(F)c(-c7cccc(-n8ccccc8=O)c7)n6)CC5)CC4)CC3)c(F)c2)C(=O)N1 (stereo partly drawn) [Compound 704, trans-2-(1-((1-(4-((2,6-dioxopiperidin-3-yl)amino)-2-fluorophenyl)piperidin-4-yl)methyl)piperidin-4-yl)-N-(4-((5-fluoro-4-(3-(2-oxopyridin-1 (2H)-yl)phenyl)pyrimidin-2-yl)amino)cyclohexyl)acetamide]
< 0.5 | O=C1CC[C@@H](Nc2ccc(C3CCN([C@H]4CC[C@H](C(=O)N[C@H]5CC[C@H](Nc6ncc(F)c(-c7cccc(-n8ccccc8=O)c7)n6)CC5)CC4)CC3)c(F)c2)C(=O)N1 [Compound 706, (1R,4R)-4-(4-(4-(((R)-2,6-dioxopiperidin-3-yl)amino)-2-fluorophenyl)piperidin-1-yl)-N-((1r,4R)-4-((5-fluoro-4-(3-(2-oxopyridin-1(2H)-yl)phenyl)pyrimidin-2-yl)amino)cyclohexyl)cyclohexane-1-carboxamide]
> 5 | trans-(1r,4R)-4-(4-(4-((2,6-dioxopiperidin-3-yl)amino)-2-fluorophenyl)piperidin-1-yl)-N-((1r,4R)-4-((5-fluoro-4-(6-(2-oxo-1,3-oxazinan-3-yl)pyridin-2-yl)pyrimidin-2-yl)amino)cyclohexyl)cyclohexane-1-carboxamide [Compound 539]

Same assay, conditions: 24 hours incubation, MOLT-4, top concentration 10 micromolar; read-out: HiBIT-degradation MOLT4 PIP4k2C 24 hours DC50

DC50 [µM] | Molecule
< 0.5 | O=C1CCC(N2Cc3cc(C4CCN(C5CCCN(CC(=O)N6CCC(Nc7ncc(Cl)c(-c8cccc(-c9ccc(F)cc9)c8)n7)CC6)C5)CC4)ccc3C2=O)C(=O)N1 (centres unmarked) [Compound 705, 3-(5-(1′-(2-(4-((5-chloro-4-(4′-fluoro-[1,1′-biphenyl]-3-yl)pyrimidin-2-yl)amino)piperidin-1-yl)-2-oxoethyl)-[1,3′-bipiperidin]-4-yl)-1-oxoisoindolin-2-yl)piperidine-2,6-dione]
